# Measurements taken from US20230066011A1, “PYRROLOPYRIMIDINE DERIVATIVE, AND PHARMACEUTICAL COMPOSITION FOR PREVENTING OR TREATING PROTEIN KINASE-RELATED DISEASE COMPRISING SAME AS ACTIVE INGREDIENT” (VORONOI CO., LTD., priority 2019, published 2023).
# Legend:
# Format in all cases: binding
# PLK4 = target: T1, PLK4 (Homo sapiens, UniProt O00444); assay: ScanMAX Kinase analysis panel, PLK4; conditions: 1 μM in DMSO; <35% considered inhibitory; read-out: percent control (% control), PLK4
# T1 construct: purchased DiscoverX Corp. (ScanMAX Kinase analysis panel, service)
# T1 sequence (O00444 1-970): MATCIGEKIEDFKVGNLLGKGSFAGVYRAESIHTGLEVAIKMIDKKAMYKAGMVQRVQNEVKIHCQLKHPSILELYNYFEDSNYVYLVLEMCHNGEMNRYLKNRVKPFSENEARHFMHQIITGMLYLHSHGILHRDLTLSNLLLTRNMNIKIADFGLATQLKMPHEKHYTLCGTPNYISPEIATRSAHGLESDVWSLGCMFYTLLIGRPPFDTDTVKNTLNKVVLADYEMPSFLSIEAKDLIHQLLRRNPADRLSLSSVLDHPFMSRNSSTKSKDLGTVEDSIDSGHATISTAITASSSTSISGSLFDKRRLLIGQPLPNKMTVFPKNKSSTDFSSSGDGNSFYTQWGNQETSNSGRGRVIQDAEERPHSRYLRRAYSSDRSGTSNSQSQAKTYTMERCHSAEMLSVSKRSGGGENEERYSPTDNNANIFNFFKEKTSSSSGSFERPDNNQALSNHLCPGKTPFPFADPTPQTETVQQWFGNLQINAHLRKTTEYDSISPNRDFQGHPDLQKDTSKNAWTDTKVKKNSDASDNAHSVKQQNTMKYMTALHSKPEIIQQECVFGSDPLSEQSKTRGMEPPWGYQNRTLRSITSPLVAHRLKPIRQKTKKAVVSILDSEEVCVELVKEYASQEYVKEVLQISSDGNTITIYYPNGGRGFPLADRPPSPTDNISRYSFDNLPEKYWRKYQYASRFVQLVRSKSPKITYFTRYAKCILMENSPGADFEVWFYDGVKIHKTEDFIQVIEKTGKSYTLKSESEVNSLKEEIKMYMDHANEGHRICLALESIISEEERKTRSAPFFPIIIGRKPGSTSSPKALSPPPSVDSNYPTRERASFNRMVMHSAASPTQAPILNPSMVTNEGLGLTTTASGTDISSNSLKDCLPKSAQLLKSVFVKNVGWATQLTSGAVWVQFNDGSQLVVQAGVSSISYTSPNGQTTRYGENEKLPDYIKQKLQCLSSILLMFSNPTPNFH
# Procedure: (§1) Specifically, the enzyme (kinase) selectivity of Example compounds 238, 361, 411, 157, 161, 228, and 158 selected from the Example compounds of the present invention was determined by commissioning DiscoverX Corp., and an experiment was performed using a ScanMAX™ Kinase analysis panel. In this case, a concentration of the drug with which the enzymes were treated was 1 μM in DMSO, and the percent control (% control) was defined in the same manner as in the following Expression 1.
# (§2) (Example Compound−Positive Control)/(Negative Control−Positive Control)×100 [Expression 1]
# (§3) wherein the positive control represents a compound having a percent control of 0%, and the negative control represents DMSO having a percent control of 100%. For the enzyme selectivity of the present invention, it was considered that the compound has an inhibitory activity on each of the enzymes when the percent control for the corresponding enzyme was <35% (i. e., less than 35%).
# LRRK2 = LRRK2 (Homo sapiens, UniProt Q5S007); assay: ScanMAX Kinase analysis panel, LRRK2; parameters: purchased DiscoverX Corp. (ScanMAX Kinase analysis panel, service); conditions: 1 μM in DMSO; <35% considered inhibitory; read-out: percent control (% control), LRRK2
# Procedure: as §1, §2, §3
# CLK1 = target: T2, CLK1 (Homo sapiens, UniProt P49759); assay: ScanMAX Kinase analysis panel, CLK1; conditions: 1 μM in DMSO; <35% considered inhibitory; read-out: percent control (% control), CLK1
# T2 construct: purchased DiscoverX Corp. (ScanMAX Kinase analysis panel, service)
# Procedure: as §1, §2, §3
# TTK = target: T3, TTK (Homo sapiens, UniProt P33981); assay: ScanMAX Kinase analysis panel, TTK; parameters: purchased DiscoverX Corp. (commissioned ScanMAX panel service); conditions: 1 μM in DMSO; <35% considered inhibitory; read-out: percent control (% control), TTK
# T3 sequence (P33981 1-857): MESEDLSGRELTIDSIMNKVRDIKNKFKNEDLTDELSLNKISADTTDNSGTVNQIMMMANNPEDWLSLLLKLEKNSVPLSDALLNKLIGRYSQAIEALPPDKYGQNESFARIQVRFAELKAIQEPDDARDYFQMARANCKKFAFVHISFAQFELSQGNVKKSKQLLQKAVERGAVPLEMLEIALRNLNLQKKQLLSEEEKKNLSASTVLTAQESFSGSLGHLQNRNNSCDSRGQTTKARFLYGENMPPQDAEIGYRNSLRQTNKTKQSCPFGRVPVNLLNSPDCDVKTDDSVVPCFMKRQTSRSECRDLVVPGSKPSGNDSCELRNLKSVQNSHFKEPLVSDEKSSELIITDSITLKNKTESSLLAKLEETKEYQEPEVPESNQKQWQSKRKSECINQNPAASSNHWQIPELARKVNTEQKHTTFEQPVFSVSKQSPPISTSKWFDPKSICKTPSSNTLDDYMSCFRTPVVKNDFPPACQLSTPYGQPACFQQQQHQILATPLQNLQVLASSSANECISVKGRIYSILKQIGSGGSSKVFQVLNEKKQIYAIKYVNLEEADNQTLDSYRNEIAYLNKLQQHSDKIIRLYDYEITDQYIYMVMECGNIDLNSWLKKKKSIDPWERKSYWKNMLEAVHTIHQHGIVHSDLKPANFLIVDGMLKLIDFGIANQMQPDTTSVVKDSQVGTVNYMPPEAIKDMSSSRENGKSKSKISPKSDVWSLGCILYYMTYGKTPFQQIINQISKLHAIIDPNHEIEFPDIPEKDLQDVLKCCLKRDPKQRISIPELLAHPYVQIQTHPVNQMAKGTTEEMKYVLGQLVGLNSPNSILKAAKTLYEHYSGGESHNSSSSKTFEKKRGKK
# Procedure: as §1, §2, §3
# CLK4 = target: T4, CLK4 (Homo sapiens, UniProt Q9HAZ1); assay: ScanMAX Kinase analysis panel, CLK4; conditions: 1 μM in DMSO; <35% considered inhibitory; read-out: percent control (% control), CLK4
# T4 construct: purchased DiscoverX Corp. (ScanMAX Kinase analysis panel, service)
# Procedure: as §1, §2, §3
# DYRK1A = target: T5, DYRK1A (Homo sapiens, UniProt Q13627); assay: ScanMAX Kinase analysis panel, DYRK1A; conditions: 1 μM in DMSO; <35% considered inhibitory; read-out: percent control (% control), DYRK1A
# T5 construct: purchased DiscoverX Corp. (ScanMAX Kinase analysis panel, service)
# Procedure: as §1, §2, §3
# DYRK1B = target: T6, DYRK1B (Homo sapiens, UniProt Q9Y463); assay: ScanMAX Kinase analysis panel, DYRK1B; conditions: 1 μM in DMSO; <35% considered inhibitory; read-out: percent control (% control), DYRK1B
# T6 construct: purchased DiscoverX Corp. (ScanMAX Kinase analysis panel, service)
# Procedure: as §1, §2, §3
# FAK = target: T7, FAK (Homo sapiens, UniProt Q05397); assay: ScanMAX Kinase analysis panel, FAK; conditions: 1 μM in DMSO; <35% considered inhibitory; read-out: percent control (% control), FAK
# T7 construct: purchased DiscoverX Corp. (ScanMAX Kinase analysis panel, service)
# Procedure: as §1, §2, §3
# T2 sequence (P49759 whole entry): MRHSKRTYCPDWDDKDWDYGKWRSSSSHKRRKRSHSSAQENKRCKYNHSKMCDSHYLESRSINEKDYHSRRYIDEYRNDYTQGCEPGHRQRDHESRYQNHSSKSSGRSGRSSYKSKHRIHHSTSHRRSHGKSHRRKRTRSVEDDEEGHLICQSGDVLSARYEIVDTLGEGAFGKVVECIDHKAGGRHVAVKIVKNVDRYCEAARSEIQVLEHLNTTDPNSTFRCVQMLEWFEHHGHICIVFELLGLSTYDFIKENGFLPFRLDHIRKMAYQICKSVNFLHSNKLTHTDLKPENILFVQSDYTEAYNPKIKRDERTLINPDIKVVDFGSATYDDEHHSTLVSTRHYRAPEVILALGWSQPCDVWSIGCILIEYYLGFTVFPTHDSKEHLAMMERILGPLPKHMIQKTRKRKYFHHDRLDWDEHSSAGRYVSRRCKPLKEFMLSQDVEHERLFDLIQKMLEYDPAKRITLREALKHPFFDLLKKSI
# LRRK2, sequence (Q5S007 whole entry): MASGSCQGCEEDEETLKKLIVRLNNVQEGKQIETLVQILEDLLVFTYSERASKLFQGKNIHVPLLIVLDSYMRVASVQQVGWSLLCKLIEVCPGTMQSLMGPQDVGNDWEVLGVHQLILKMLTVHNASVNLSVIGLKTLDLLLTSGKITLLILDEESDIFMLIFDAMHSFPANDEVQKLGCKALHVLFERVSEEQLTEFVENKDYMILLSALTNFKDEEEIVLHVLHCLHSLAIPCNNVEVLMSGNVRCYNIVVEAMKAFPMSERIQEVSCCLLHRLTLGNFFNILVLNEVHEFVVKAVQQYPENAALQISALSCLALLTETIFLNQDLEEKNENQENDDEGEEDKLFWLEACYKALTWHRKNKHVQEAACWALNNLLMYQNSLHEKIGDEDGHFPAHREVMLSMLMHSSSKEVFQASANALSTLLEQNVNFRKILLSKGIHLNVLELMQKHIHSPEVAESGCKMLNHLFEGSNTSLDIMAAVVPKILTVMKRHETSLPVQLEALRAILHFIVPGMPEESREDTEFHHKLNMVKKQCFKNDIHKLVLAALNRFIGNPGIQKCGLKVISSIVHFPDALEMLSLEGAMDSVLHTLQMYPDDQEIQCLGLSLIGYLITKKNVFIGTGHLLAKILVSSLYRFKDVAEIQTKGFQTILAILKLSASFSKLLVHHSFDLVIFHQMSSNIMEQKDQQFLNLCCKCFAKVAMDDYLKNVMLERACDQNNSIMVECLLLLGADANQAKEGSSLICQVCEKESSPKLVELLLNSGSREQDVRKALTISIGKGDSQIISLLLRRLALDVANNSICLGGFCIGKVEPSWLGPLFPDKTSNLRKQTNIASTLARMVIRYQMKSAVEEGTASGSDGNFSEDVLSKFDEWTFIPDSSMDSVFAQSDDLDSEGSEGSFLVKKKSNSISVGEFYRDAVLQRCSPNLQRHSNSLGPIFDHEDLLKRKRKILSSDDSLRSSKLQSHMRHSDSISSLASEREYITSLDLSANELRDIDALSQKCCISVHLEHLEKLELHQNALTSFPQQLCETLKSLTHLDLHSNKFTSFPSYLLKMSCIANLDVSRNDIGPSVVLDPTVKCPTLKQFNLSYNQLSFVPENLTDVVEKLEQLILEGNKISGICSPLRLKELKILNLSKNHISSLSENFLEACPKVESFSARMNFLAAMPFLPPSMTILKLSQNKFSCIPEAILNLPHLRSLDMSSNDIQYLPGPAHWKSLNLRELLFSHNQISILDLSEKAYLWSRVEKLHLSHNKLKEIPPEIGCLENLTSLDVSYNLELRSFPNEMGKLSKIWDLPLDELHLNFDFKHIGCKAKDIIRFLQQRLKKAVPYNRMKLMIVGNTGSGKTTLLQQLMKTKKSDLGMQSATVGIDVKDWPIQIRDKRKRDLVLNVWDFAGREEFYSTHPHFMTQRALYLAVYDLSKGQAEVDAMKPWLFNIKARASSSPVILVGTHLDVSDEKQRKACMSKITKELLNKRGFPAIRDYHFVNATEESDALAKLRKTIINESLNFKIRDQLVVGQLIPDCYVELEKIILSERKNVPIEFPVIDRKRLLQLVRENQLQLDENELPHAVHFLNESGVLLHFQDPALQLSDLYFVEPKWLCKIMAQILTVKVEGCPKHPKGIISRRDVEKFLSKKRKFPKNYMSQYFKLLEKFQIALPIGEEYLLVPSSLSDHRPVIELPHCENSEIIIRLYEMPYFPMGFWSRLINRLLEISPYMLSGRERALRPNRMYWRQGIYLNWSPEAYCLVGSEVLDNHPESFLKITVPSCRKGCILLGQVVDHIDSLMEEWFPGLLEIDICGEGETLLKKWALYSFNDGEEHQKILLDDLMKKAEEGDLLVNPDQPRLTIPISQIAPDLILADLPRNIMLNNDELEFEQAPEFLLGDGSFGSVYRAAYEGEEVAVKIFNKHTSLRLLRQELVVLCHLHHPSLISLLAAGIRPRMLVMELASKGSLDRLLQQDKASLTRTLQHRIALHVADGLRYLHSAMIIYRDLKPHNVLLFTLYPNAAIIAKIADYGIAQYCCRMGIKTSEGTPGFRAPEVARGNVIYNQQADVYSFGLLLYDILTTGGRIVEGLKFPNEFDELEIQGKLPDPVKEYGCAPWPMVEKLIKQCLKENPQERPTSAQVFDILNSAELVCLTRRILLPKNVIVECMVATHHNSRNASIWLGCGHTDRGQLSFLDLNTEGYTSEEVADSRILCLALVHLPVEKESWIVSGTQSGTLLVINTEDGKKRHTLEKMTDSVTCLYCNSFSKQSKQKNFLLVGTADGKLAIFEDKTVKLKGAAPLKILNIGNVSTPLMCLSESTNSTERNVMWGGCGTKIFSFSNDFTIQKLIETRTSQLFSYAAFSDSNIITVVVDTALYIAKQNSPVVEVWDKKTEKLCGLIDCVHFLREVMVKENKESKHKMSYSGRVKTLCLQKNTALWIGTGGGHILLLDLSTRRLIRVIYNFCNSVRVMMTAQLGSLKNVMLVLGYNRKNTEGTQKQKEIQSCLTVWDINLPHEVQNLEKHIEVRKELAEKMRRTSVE
# T6 sequence (Q9Y463 whole entry): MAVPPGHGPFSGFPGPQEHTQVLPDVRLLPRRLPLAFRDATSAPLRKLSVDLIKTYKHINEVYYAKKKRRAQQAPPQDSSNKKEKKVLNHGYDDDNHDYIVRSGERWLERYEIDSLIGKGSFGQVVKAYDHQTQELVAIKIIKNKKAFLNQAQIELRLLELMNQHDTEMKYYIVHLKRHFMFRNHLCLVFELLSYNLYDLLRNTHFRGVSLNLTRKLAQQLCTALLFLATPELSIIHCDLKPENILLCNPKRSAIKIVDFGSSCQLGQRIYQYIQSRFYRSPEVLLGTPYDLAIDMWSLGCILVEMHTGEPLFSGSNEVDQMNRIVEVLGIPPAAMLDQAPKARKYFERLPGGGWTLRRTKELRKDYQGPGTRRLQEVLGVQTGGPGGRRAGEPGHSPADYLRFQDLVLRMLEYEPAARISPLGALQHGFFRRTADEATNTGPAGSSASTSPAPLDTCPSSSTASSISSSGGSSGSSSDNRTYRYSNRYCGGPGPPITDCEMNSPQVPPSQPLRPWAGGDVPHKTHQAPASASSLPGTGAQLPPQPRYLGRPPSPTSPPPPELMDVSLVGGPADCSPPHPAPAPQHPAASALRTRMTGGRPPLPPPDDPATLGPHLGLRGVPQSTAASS
# T7 sequence (Q05397 whole entry): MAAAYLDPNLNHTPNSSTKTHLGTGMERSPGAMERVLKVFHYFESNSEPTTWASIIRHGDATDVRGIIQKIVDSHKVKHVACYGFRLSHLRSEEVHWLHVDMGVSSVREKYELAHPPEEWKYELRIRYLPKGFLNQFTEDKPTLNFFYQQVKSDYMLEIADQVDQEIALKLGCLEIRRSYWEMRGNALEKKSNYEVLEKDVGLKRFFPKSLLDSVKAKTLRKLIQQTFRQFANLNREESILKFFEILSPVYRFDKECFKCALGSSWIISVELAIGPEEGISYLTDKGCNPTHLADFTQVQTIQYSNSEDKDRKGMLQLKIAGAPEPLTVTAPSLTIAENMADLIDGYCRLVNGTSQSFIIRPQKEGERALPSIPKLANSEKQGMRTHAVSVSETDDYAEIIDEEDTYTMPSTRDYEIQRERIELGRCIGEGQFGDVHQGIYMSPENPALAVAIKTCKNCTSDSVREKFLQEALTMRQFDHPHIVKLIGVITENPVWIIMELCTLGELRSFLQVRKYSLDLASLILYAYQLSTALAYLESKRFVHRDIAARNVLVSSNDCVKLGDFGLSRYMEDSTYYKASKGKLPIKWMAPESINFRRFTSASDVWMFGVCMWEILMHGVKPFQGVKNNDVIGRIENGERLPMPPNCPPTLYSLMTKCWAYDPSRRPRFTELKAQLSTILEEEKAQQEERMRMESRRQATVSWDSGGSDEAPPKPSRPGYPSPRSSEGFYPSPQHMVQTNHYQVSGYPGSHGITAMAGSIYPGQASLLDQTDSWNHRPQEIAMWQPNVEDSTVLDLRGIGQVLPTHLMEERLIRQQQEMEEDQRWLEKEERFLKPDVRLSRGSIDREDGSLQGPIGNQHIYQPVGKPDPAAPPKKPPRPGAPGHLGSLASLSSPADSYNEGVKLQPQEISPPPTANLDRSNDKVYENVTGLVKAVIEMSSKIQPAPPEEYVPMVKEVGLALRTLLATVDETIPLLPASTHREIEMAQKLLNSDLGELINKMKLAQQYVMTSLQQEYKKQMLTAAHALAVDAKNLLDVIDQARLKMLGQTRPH
Compound,remaining binding at 1 µM (PLK4) [%],remaining binding at 1 µM (LRRK2) [%],remaining binding at 1 µM (CLK1) [%],remaining binding at 1 µM (TTK) [%],remaining binding at 1 µM (CLK4) [%],remaining binding at 1 µM (DYRK1A) [%],remaining binding at 1 µM (DYRK1B) [%],remaining binding at 1 µM (FAK) [%]
"CNc1nc(Nc2ccc(S(=O)(=O)N3CCC(N4CCOCC4)CC3)cc2OC)nc2[nH]cc(C(F)(F)F)c12 [Example 157, N^2-(2-methoxy-4-((4-morpholinopiperidin-1-yl)sulfonyl)phenyl)-N^4-methyl-5-(trifluoromethyl)-7H-pyrrolo[2,3-d]pyrimidine-2,4-diamine 2,2,2-trifluoroacetate]",10,0.7,6.7,4,0.55,0.05,0,0.85
"CCNc1nc(Nc2ccc(S(=O)(=O)N3CCC(N4CCOCC4)CC3)cc2OC)nc2[nH]cc(C(F)(F)F)c12 [Example 158, N^4-ethyl-N^2-(2-methoxy-4-((4-morpholinopiperidin-1-yl)sulfonyl)phenyl)-5-(trifluoromethyl)-7H-pyrrolo[2,3-d]pyrimidine-2,4-diamine 2,2,2-trifluoroacetate]",26,0,1,2.6,0.3,0.75,0.8,1.1
"CCCNc1nc(Nc2ccc(S(=O)(=O)N3CCC(N4CCOCC4)CC3)cc2OC)nc2[nH]cc(C(F)(F)F)c12 [Example 161, N^2-(2-methoxy-4-((4-morpholinopiperidin-1-yl)sulfonyl)phenyl)-N^4-propyl-5-(trifluoromethyl)-7H-pyrrolo[2,3-d]pyrimidine-2,4-diamine]",11,1,5.5,4.2,0.65,2,0,2.3
"O=C(c1ccc(Nc2nc(C3CC3)c3c(C(F)(F)F)c[nH]c3n2)c2c1OCCO2)N1CCC(N2CCOCC2)CC1 [Example 228, (8-((4-cyclopropyl-5-(trifluoromethyl)-7H-pyrrolo[2,3-d]pyrimidin-2-yl)amino)-2,3-dihydrobenzo[b][1,4]dioxin-5-yl)(4-morpholinopiperidin-1-yl)methanone]",3.2,0.3,6.1,2.9,0.05,0.5,0,24
"CNc1nc(Nc2ccc(C(=O)N3CCC(N4CCOCC4)CC3)c3c2OCCO3)nc2[nH]cc(C(F)(F)F)c12 [Example 238, (8-((4-(methylamino)-5-(trifluoromethyl)-7H-pyrrolo[2,3-d]pyrimidin-2-yl)amino)-2,3-dihydrobenzo[b][1,4]dioxin-5-yl)(4-morpholinopiperidin-1-yl)methanone]",7.8,0.45,16,2.9,3.6,0.25,0,7.8
"C=CCNc1nc(Nc2ccc(S(=O)(=O)N3CCC(N4CCOCC4)CC3)cc2OC)nc2[nH]cc(C#N)c12 [Example 361, 4-(allylamino)-2-((2-methoxy-4-((4-morpholino-piperidin-1-yl)sulfonyl)phenyl)amino)-7H-pyrrolo[2,3-d]pyrimidine-5-carbonitrile]",0.3,0,2.4,2.4,2.8,2.6,6.1,0.75
"CNc1nc(Nc2ccc(P3(=O)CCN(C4CC4)CC3)cc2OC)nc2[nH]cc(C(F)(F)F)c12 [Example 411, 1-cyclopropyl-4-(3-methoxy-4-((4-(methylamino)-5-(trifluoromethyl)-7H-pyrrolo[2,3-d]pyrimidin-2-yl)amino)phenyl)-1,4-azaphosphinane-4-oxide]",23,1.9,7.2,2.5,1.4,0.2,4.5,10
